Source: the supplement of paper PMC10307832

Key:
Test in all cases: relative viability (nuclei count vs DMSO), 5 days (fraction); higher = more cells survive
R406 + Pemetrexed = compound: COc1cc(Nc2ncc(F)c(Nc3ccc4c(n3)NC(=O)C(C)(C)O4)n2)cc(OC)c1OC [R406] + Nc1nc2[nH]cc(CCc3ccc(C(=O)N[C@@H](CCC(=O)O)C(=O)O)cc3)c2c(=O)[nH]1 [Pemetrexed] (partner 0.2 µM)
Summary of the method: (§1)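 For relative viability, nuclei counts in treated wells were divided by those in vehicle wells. Lung cancer cell lines had been pin-tool dosed in 1536-well plates the day after seeding and cultured for 5 days, then fixed and stained in one step (final 0.05% Triton X-100, 1% formaldehyde, 1 ug/ml Hoechst) and imaged at 4×. Doses were one drug alone or a fixed anchor-drug dose plus five library-drug doses (not always all listed) in √10 steps, and values are duplicate-plate medians.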

R406 + Decitabine = compound: COc1cc(Nc2ncc(F)c(Nc3ccc4c(n3)NC(=O)C(C)(C)O4)n2)cc(OC)c1OC [R406] + Nc1ncn([C@H]2C[C@H](O)[C@@H](CO)O2)c(=O)n1 [Decitabine] (partner 2 µM)
Summary of the method: as §1

Daporinad + Linsitinib = compound: O=C(/C=C/c1cccnc1)NCCCCC1CCN(C(=O)c2ccccc2)CC1 [Daporinad] + C[C@]1(O)C[C@@H](c2nc(-c3ccc4ccc(-c5ccccc5)nc4c3)c3c(N)nccn32)C1 [Linsitinib] (partner 1 µM)
Summary of the method: as §1

R406 + Phenformin = compound: COc1cc(Nc2ncc(F)c(Nc3ccc4c(n3)NC(=O)C(C)(C)O4)n2)cc(OC)c1OC [R406] + N=C(N)NC(=N)NCCc1ccccc1 [Phenformin] (partner 250 µM)
Summary of the method: as §1

UMC-11 was tested, and the relative viability (R406 + Pemetrexed; first compound 0.08 µM) was 0.764, the relative viability (R406 + Pemetrexed; first compound 0.253 µM) was 0.808 and the relative viability (R406 + Pemetrexed; first compound 0.8 µM) was 0.889. For the same cell line, the relative viability (R406 + Pemetrexed; first compound 2.53 µM) was 0.609, the relative viability (R406 + Pemetrexed; first compound 8 µM) was 0.304 and the relative viability (R406 + Decitabine; first compound 0.08 µM) was 0.618. It also gave a relative viability (R406 + Decitabine; first compound 0.253 µM) of 0.703, a relative viability (R406 + Decitabine; first compound 0.8 µM) of 0.75 and a relative viability (R406 + Decitabine; first compound 2.53 µM) of 1.34. It also gave a relative viability (R406 + Decitabine; first compound 8 µM) of 0.312, a relative viability (Daporinad + Linsitinib; first compound 0.0005 µM) of 1.02 and a relative viability (Daporinad + Linsitinib; first compound 0.001581 µM) of 0.975. The relative viability (Daporinad + Linsitinib; first compound 0.005 µM) was 1.1, the relative viability (Daporinad + Linsitinib; first compound 0.01581 µM) was 1.03 and the relative viability (R406 + Phenformin; first compound 0.08 µM) was 0.356. The relative viability (R406 + Phenformin; first compound 0.253 µM) was 0.35, the relative viability (R406 + Phenformin; first compound 0.8 µM) was 0.368 and the relative viability (R406 + Phenformin; first compound 2.53 µM) was 0.28. For the same cell line, the relative viability (R406 + Phenformin; first compound 8 µM) was 0.19.
